Reference: ChEMBL document CHEMBL1201862, “PubChem BioAssay data set” (2004)
The source made the active and inactive calls.

Columns and labels:
[1] = target: Beta-2 adrenergic receptor (Homo sapiens, UniProt P07550); assay: ADRB2 activation measured by internalization – cell-based, FAP fluorogen, flow cytometry, cherry pick 1, dose response (AID 588763); assay type: functional
[2] = target: T1, G-protein coupled receptor 35 (Homo sapiens, UniProt Q9HC97); assay: inhibition of zaprinast-stimulated GPR35 beta-arrestin translocation – imaging, U2OS, beta-arrestin-GFP, zaprinast agonist, primary screen (AID 2058); assay type: functional;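 also: antagonist potency meaning inhibition of agonist-induced arrestin redistribution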
T1 sequence (Q9HC97 whole entry): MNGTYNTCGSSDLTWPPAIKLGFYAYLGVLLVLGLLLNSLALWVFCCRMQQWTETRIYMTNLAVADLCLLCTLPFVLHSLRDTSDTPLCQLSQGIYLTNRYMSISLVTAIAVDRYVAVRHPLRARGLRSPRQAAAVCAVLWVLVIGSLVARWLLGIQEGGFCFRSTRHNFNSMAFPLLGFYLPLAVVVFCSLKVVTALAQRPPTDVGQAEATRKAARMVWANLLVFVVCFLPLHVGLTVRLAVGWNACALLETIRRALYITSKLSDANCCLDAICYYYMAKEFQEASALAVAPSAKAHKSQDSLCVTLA

[3] = target: T1, G-protein coupled receptor 35; assay: SAR Analysis for the identification of Selective Antagonists of ERK1/2 Activity in GPR35-Overexpressing U2OS Cells. [Related pubchem assays: 2079, 2058 ]; assay type: functional, cell-based
Caspase-3 = target: T2, Caspase-3 (Homo sapiens, UniProt P42574); assay type: functional;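 also: Dose-response selectivity test against caspase-3 for candidate inhibitors of sentrin-specific proteases (SENPs)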
T2 sequence (P42574 whole entry): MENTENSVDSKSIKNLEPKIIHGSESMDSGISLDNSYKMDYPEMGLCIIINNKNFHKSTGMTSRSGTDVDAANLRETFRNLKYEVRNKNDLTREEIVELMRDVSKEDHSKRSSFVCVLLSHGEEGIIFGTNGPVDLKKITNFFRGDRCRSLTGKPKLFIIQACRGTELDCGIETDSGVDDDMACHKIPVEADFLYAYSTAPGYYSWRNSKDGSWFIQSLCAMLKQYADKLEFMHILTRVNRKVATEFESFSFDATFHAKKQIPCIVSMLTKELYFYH

[4] = target: T3, Sentrin-specific protease 7 (Homo sapiens, UniProt Q9BQF6); assay type: functional;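 also: Luminescence-based dose-response confirmation of ultra-high-throughput screening hits, measuring inhibition of SENP7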
T3 sequence (Q9BQF6 whole entry): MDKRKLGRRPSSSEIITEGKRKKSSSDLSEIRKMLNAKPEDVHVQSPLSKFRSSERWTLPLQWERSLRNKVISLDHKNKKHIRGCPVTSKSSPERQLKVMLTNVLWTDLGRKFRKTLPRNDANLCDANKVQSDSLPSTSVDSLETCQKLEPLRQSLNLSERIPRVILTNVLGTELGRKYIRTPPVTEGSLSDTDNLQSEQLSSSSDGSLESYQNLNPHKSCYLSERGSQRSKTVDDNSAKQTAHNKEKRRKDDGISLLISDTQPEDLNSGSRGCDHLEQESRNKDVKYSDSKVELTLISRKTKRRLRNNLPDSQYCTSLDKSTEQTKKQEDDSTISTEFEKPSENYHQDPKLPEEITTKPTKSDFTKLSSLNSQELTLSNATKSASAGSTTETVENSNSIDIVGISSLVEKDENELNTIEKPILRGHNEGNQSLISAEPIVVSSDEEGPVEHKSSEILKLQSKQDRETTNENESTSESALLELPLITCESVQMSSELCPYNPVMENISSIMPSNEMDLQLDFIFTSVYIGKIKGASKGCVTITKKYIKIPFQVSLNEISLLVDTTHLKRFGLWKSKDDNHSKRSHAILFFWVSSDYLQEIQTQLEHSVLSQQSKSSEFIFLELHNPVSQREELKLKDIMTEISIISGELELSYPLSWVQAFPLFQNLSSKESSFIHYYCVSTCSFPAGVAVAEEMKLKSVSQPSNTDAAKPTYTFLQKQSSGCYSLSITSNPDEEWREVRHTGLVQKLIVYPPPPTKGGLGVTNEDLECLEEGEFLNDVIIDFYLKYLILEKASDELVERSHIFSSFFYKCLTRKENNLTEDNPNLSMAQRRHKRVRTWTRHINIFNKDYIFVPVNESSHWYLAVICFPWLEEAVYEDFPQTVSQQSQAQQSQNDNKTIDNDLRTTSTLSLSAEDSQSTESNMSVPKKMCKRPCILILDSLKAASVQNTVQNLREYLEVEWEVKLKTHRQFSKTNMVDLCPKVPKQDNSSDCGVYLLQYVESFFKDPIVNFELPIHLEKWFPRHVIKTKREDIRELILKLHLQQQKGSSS

[5] = target: T4, Sentrin-specific protease 6 (Homo sapiens, UniProt Q9GZR1); assay type: functional;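 also: Luminescence-based dose-response confirmatory assay of SENP6 inhibition, following up an ultra-high-throughput screen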
T4 sequence (Q9GZR1 whole entry): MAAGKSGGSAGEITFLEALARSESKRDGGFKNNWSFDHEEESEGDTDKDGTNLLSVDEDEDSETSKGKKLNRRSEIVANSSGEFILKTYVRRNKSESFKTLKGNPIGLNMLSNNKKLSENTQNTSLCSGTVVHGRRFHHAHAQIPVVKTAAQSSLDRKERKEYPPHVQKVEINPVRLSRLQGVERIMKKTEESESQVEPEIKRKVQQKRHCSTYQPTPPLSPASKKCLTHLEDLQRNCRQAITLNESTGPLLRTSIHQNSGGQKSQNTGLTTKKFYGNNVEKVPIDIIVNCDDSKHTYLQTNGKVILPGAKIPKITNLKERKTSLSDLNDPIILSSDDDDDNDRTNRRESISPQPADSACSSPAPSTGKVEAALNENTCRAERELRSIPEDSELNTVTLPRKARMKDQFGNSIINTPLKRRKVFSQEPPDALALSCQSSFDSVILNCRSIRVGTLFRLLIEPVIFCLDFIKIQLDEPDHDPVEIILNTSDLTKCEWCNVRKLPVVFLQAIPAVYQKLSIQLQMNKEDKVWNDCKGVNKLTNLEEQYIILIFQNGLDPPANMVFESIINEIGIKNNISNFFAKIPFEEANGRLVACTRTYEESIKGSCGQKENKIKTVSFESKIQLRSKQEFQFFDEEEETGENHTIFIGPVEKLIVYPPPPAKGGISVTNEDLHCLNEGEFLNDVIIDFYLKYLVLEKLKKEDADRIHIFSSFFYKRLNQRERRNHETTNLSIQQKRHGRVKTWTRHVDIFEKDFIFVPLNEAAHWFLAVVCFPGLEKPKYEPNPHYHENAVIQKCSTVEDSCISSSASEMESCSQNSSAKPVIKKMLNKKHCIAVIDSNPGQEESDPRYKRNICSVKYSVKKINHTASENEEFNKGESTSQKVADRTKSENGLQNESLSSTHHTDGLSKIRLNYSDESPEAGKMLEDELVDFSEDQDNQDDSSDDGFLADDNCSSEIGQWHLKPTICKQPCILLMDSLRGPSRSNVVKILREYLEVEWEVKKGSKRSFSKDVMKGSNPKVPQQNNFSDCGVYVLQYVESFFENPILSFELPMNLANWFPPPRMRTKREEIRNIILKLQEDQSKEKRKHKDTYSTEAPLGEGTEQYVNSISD

[6] = target: T5, Sentrin-specific protease 8 (Homo sapiens, UniProt Q96LD8); assay type: functional;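 also: luminescence read-out of SENP8 inhibition, dose-response confirmation following an ultra-high-throughput screen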
T5 sequence (Q96LD8 whole entry): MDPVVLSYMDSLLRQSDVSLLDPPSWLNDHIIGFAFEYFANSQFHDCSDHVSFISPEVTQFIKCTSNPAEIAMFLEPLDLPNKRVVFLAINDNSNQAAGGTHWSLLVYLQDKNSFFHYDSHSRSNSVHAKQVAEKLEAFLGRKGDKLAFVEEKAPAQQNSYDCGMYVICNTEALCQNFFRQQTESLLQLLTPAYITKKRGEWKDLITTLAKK

[7] = target: G-protein coupled receptor 55 (Homo sapiens, UniProt Q9Y2T6); assay: blockers of GPR55 signalling, imaged – imaging, image-based, counter-screen for GPR35 antagonist project, SAR follow-up (AID 2397); assay type: functional
G-protein coupled receptor 55, sequence (Q9Y2T6 whole entry): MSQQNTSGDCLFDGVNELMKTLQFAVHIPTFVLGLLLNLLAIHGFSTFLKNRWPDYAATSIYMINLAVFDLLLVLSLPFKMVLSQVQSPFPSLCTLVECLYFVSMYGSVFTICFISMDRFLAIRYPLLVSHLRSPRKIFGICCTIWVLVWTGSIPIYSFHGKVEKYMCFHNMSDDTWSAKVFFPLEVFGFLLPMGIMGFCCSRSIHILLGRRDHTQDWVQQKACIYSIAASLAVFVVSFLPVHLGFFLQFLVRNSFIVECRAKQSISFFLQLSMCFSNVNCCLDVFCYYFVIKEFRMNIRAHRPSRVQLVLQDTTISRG

[8] = decrease of insulin promoter-GFP reporter – imaging, high-content screening, mouse beta cells (AID 1628); assay type: functional; settings: MIN6
[9] = MIN6 cell viability loss – mouse insulinoma, cytotoxicity control, dose response (AID 2122); assay type: functional;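 also: confirmatory high-throughput counterscreen run to flag cytotoxic compounds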
[10] = microbe, parasite or virus in culture; assay type: functional; settings: Mycobacterium tuberculosis
[11] = target: FAD-linked sulfhydryl oxidase ALR (Homo sapiens, UniProt P55789); assay: ALR-catalysed DTT oxidation blockers – biochemical, H2O2 detection, luminescence, cherry-pick, dose response (AID 493248)
FAD-linked sulfhydryl oxidase ALR, sequence (P55789 whole entry): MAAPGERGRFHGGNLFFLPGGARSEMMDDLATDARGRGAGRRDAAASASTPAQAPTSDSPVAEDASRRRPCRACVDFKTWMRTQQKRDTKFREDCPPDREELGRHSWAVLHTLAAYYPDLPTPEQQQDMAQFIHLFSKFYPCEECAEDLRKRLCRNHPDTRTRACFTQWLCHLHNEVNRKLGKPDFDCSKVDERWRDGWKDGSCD

[12] = target: 26S proteasome non-ATPase regulatory subunit 14 (Homo sapiens, UniProt O00487); assay: inhibition of proteasome subunit RPN11 – biochemical, fluorescence polarization, uHTS hits, confirmation (AID 602368); assay type: functional
26S proteasome non-ATPase regulatory subunit 14, sequence (O00487 whole entry): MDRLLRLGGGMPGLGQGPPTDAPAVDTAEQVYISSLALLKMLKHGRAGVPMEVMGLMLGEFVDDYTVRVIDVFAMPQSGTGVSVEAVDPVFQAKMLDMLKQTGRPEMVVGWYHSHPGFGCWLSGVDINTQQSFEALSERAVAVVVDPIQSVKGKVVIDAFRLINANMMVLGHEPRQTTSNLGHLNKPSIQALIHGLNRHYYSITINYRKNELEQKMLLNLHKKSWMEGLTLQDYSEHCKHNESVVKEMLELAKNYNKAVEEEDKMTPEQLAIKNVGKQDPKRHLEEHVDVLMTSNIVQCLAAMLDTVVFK

[13] = target: 72 kDa type IV collagenase (Homo sapiens, UniProt P08253); assay: Dose Response validation of uHTS RPN11 inhibitor hits using a MMP-2 Fluorescence assay.; assay type: functional
72 kDa type IV collagenase, sequence (P08253 whole entry): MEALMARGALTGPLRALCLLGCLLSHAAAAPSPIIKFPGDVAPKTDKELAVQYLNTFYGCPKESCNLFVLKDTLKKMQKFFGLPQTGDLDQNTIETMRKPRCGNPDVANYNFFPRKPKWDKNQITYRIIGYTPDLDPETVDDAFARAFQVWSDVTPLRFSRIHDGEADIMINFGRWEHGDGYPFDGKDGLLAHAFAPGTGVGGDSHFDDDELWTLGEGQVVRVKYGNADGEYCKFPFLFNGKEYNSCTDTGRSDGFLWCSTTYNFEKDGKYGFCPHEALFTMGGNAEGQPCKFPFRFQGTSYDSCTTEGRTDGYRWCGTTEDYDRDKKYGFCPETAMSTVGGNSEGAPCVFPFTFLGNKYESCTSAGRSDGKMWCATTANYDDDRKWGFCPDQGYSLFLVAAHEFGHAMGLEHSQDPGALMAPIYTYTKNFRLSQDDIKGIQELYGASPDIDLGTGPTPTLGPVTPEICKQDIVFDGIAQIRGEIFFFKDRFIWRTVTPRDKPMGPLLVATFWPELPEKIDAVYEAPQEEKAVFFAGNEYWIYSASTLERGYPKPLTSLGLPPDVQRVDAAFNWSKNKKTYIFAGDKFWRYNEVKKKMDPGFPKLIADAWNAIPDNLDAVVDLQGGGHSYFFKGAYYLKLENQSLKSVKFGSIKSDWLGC

Prothrombin = Prothrombin (Bos taurus, UniProt P00735); assay: thrombin protease inhibitors – biochemical, fluorescence polarization, uHTS hits, dose response (AID 602369); assay type: functional
Cytochrome P450 3A4 = Cytochrome P450 3A4 (Homo sapiens, UniProt P08684); settings: Potency;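 also: confirmatory qHTS run detecting inhibitors and substrates of CYP3A4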
Cytochrome P450 3A4, sequence (P08684 whole entry): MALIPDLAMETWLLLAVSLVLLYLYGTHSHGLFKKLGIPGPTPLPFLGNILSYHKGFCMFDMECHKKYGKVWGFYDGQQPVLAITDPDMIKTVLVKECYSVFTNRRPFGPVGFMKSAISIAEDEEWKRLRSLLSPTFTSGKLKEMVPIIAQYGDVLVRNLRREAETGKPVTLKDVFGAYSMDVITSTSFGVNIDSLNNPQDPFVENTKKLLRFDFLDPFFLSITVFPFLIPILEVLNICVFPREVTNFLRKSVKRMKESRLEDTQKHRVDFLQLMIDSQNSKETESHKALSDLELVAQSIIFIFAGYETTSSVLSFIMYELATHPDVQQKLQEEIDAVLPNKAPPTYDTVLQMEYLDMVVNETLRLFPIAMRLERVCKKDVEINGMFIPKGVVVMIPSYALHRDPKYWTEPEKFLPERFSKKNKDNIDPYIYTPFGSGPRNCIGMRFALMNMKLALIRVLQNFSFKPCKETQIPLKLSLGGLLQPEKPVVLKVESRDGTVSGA

[14] = target: Voltage-gated inwardly rectifying potassium channel KCNH2 (Homo sapiens, UniProt Q12809); settings: Potency;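 also: confirmatory quantitative high-throughput screen measuring inhibition of hERG channel activity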
Voltage-gated inwardly rectifying potassium channel KCNH2, sequence (Q12809 whole entry): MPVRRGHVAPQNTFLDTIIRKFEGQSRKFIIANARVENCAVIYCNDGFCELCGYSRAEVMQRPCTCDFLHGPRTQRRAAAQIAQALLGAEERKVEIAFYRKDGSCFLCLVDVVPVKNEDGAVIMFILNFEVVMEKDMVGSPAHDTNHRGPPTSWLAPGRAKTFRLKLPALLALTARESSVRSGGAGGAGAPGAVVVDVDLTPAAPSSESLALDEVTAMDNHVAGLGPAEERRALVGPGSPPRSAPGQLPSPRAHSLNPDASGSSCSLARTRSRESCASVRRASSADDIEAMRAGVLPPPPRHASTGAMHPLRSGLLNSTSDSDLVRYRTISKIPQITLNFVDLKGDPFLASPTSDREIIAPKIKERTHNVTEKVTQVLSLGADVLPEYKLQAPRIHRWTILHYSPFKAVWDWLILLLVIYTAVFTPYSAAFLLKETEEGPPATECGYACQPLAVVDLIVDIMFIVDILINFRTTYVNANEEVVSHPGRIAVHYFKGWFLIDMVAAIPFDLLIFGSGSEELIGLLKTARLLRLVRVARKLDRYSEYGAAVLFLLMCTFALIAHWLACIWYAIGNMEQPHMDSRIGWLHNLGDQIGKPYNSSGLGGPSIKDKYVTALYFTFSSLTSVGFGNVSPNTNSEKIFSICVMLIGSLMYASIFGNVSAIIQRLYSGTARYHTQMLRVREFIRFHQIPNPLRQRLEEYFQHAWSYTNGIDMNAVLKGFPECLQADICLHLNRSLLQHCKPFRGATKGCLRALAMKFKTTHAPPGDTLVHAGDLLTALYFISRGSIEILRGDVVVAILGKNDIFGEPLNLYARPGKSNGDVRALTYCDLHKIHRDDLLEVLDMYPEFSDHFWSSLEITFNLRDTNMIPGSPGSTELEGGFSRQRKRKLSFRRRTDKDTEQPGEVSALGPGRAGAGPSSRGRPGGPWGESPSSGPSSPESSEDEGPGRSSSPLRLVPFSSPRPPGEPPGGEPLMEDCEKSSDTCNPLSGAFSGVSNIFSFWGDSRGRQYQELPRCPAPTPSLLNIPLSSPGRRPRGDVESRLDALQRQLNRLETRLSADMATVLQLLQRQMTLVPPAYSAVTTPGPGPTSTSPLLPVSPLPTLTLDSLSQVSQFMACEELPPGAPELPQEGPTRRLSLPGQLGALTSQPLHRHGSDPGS

Beta-2 adrenergic receptor, sequence (P07550 whole entry): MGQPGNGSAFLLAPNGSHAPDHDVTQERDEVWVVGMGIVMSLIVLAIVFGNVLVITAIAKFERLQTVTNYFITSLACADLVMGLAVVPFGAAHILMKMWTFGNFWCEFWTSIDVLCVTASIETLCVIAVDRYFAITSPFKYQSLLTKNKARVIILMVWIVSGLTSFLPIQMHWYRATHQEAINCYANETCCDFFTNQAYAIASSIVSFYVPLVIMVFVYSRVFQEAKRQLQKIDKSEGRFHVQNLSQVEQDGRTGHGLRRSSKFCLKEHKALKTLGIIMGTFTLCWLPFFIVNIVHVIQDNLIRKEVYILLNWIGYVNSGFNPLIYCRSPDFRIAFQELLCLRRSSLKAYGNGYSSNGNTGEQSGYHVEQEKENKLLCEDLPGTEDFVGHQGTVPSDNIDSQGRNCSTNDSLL

With `COc1ccc(CNC(=O)CCCCCNc2nc(S)nc3ccccc23)cc1` the EC50 [1] was 0.0255 µM (active).
In the case of `O=C(CCCN1C(=O)S/C(=C/c2ccccc2)C1=S)Nc1ccc(C(=O)O)cc1`, the IC50 [2] was 1.51 µM (active), the IC50 [3] was 1.45 µM (active) and the IC50 (Caspase-3) was 23.5 µM (active). The IC50 [4] was 21.3 µM (active), the IC50 [5] was 23.7 µM (active) and the IC50 [6] was 29.8 µM (active). For the same compound, the IC50 [7] was > 32 µM (inactive).
In the case of `CCOc1ccc(C(O)Cn2c(=N)n(CCN3CCCCC3)c3ccccc32)cc1` (configuration not stated), the IC50 [8] was 2.55 µM (active) and the IC50 [9] was 5.18 µM (active).
In the case of `CCN(CC)c1ccc(N)cc1`, the CC50 [10] was 27.9 µM (active), the AC50 [11] was 6.78 µM (active) and the IC50 [12] was 4.69 µM (active). The IC50 [13] was > 100 µM (inactive), the IC50 (Prothrombin) was 5.11 µM (active) and the AC50 (Cytochrome P450 3A4) was 25.1 µM (inconclusive). The AC50 [14] was 10 µM (inconclusive).
